Measurements: ChEMBL document CHEMBL6153105, “MDN-0057 to MDN-0060, a Family of Broad-Spectrum Antibiotics against Gram-Negative Pathogens Produced by Ophiosphaerella korrae” (2025)
In brackets after ≈: the same amount, converted by molar mass.

Tests used:
Type in all cases: functional
Acinetobacter baumannii = experiment: Antibacterial activity against Acinetobacter baumannii MB5973 incubated for 20 hrs
Pseudomonas aeruginosa = experiment: Antibacterial activity against Pseudomonas aeruginosa ATCC 27853 incubated for 20 hrs
Escherichia coli = experiment: Antibacterial activity against Escherichia coli ATCC 25922 incubated for 20 hrs

Row | MIC (Acinetobacter baumannii) | MIC (Pseudomonas aeruginosa) | MIC (Escherichia coli) | Compound
1 | 2.5 µg/mL (≈ 3.04 µM) | – | – | CO[C@H]1/C=C/O[C@@]2(C)Oc3c(C)c(O)c4c(O)c(c(/C=N/N5CCN(C)CC5)c(O)c4c3C2=O)NC(=O)/C(C)=C\C=C\[C@H](C)[C@H](O)[C@@H](C)[C@@H](O)[C@@H](C)[C@H](OC(C)=O)[C@@H]1C [RIFAMPIN]
2 | 1 µg/mL (≈ 2.73 µM) | 32 µg/mL (≈ 87.3 µM) | – | [C-]#[N+]C(=C)[C@](Cc1ccc(OC)cc1)([N+]#[C-])[C@H]1C[C@@H](O)C=C[C@@H]1OC(C)=O
3 | 0.25 µg/mL (≈ 0.654 µM) | 64 µg/mL (≈ 167 µM) | 16 µg/mL (≈ 41.8 µM) | [C-]#[N+]C(=C)[C@](Cc1ccc(OC)cc1)([N+]#[C-])[C@H]1C[C@@H](O)C=C[C@@H]1OC(=O)CO
4 | 0.25 µg/mL (≈ 0.65 µM) | 2 µg/mL (≈ 5.2 µM) | 16 µg/mL (≈ 41.6 µM) | [C-]#[N+]C(=C)[C@](Cc1ccc(OC)cc1)([N+]#[C-])[C@H]1C[C@@H](O)CC[C@@H]1OC(=O)CO
5 | 0.5 µg/mL (≈ 1.36 µM) | 16 µg/mL (≈ 43.4 µM) | – | [C-]#[N+]C(=C)[C@](Cc1ccc(OC)cc1)([N+]#[C-])[C@H]1C[C@@H](O)CC[C@@H]1OC(C)=O

Row | Compound | MIC (Acinetobacter baumannii) | MIC (Pseudomonas aeruginosa) | MIC (Escherichia coli)
6 | C[C@H]1[C@H](NC(=O)/C(=N\OC(C)(C)C(=O)O)c2csc(N)n2)C(=O)N1S(=O)(=O)O [AZTREONAM] | – | – | 0.25 µg/mL (≈ 0.574 µM)
